Measured values published in ChEMBL document CHEMBL1140511, “Synthesis of (aryloxyacetylamino)-isonicotinic/nicotinic acid analogues as potent hypoxia-inducible factor (HIF)-1alpha inhibitors” (Bioorg Med Chem Lett, 2007).
The source made the active and inactive calls. The rule behind the calls is not given here.

Legend:
[1] = molecular target: T1, Hypoxia-inducible factor 1-alpha (Homo sapiens, UniProt Q16665); assay: Inhibition of hypoxia induced HIF1-alpha transcriptional activity in human AGS cells by reporter gene assay; format: cell-based
T1 sequence (Q16665 whole entry): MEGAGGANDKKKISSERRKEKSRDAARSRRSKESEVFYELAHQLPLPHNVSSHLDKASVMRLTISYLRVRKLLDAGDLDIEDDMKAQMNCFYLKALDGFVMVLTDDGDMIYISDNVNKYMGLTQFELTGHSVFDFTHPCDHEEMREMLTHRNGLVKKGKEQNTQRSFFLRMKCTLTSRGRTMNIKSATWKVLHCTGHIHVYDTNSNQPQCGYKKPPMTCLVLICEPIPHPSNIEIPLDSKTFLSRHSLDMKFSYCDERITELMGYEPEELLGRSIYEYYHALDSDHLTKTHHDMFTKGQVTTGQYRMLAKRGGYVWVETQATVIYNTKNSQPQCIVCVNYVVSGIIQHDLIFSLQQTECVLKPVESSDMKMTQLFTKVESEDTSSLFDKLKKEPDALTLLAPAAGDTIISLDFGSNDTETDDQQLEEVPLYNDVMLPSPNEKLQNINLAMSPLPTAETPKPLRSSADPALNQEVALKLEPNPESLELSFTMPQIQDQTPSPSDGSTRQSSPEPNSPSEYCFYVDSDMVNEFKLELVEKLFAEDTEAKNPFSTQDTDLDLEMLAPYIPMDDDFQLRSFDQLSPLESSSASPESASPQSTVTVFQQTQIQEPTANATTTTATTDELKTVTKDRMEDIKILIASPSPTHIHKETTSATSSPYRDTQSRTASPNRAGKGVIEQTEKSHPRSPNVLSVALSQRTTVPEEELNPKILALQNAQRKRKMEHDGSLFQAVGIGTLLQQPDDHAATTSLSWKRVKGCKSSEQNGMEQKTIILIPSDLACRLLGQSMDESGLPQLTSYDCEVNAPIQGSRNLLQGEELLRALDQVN

[2] = molecular target: T1, Hypoxia-inducible factor 1-alpha; assay: Inhibition of hypoxia induced HIF1-alpha transcriptional activity in human Hep3B cells by reporter gene assay; format: cell-based; conditions: hep 3b2
[3] = molecular target: T1, Hypoxia-inducible factor 1-alpha; assay: Inhibition of hypoxia induced HIF1-alpha transcriptional activity in human Sk-Hep1 cells by reporter gene assay; format: cell-based
[4] = Suppression of hypoxia induced VEGF expression in human Hep3B cells by RT-PCR; format: functional, cell-based; conditions: Hep 3B2
[5] = Suppression of hypoxia induced GAPDH mRNA expression in human Hep3B cells by RT-PCR; format: functional, cell-based; conditions: Hep 3B2
[6] = Suppression of hypoxia induced EPO expression in human Hep3B cells by RT-PCR; format: functional, cell-based; conditions: Hep 3B2
[7] = Suppression of hypoxia induced HIF1-alpha mRNA expression in human Hep3B cells by RT-PCR; format: functional, cell-based; conditions: Hep 3B2

Structure (SMILES)	IC50 [1] [µM]	IC50 [2] [µM]	IC50 [3] [µM]	Activity [4]	Activity [5]	Activity [6]	Activity [7]
O=C(COc1ccc(C23CC4CC(CC(C4)C2)C3)cc1)Nc1cccc(C(=O)O)c1	0.35	0.4	–	–	–	–	–
COC(=O)c1ccnc(NC(=O)COc2ccc(C34CC5CC(CC(C5)C3)C4)cc2)c1	2	1.2	1.03	–	–	–	–
O=C(COc1ccc(C23CC4CC(CC(C4)C2)C3)cc1)Nc1cncc(C(=O)NCCCn2ccnc2)c1	> 10	> 10	1.9	–	–	–	–
O=C(COc1ccc(C23CC4CC(CC(C4)C2)C3)cc1)Nc1cncc(C(=O)O)c1	> 30	> 30	> 30	–	–	–	–
O=C(COc1ccc(C23CC4CC(CC(C4)C2)C3)cc1)Nc1cc(C(=O)NCCCn2ccnc2)ccn1	11	11.2	0.9	–	–	–	–
COC(=O)c1cncc(NC(=O)COc2ccc(C34CC5CC(CC(C5)C3)C4)cc2)c1	5	5.9	> 30	–	–	–	–
NC(=O)c1ccnc(NC(=O)COc2ccc(C34CC5CC(CC(C5)C3)C4)cc2)c1	1.8	3.1	0.6	Dose-dependent effect	inactive	Dose-dependent effect	inactive
O=C(COc1ccc(C23CC4CC(CC(C4)C2)C3)cc1)Nc1cncc(C(=O)NCCc2ccncc2)c1	1.3	> 30	> 30	–	–	–	–
O=C(COc1ccc(C23CC4CC(CC(C4)C2)C3)cc1)Nc1cc(C(=O)Nc2ccc(Cl)cc2)ccn1	18.6	> 30	2.5	–	–	–	–
COC(=O)c1cccc(NC(=O)COc2ccc(C34CC5CC(CC(C5)C3)C4)cc2)c1	0.7	2.6	–	–	–	–	–
O=C(COc1ccc(C23CC4CC(CC(C4)C2)C3)cc1)Nc1cc(C(=O)NCc2ccco2)ccn1	> 30	> 30	> 30	–	–	–	–
O=C(COc1ccc(C23CC4CC(CC(C4)C2)C3)cc1)Nc1cc(C(=O)O)ccn1	0.8	1	2	–	–	–	–
O=C(COc1ccc(C23CC4CC(CC(C4)C2)C3)cc1)Nc1cncc(C(=O)NCc2ccco2)c1	30	> 30	4.1	–	–	–	–
O=C(COc1ccc(C23CC4CC(CC(C4)C2)C3)cc1)Nc1cc(C(=O)NCCc2ccncc2)ccn1	5.2	3.4	3.4	–	–	–	–
NC(=O)c1cncc(NC(=O)COc2ccc(C34CC5CC(CC(C5)C3)C4)cc2)c1	0.9	> 10	11.9	–	–	–	–
